From US5840684A, “Glycopeptide antibiotic derivatives” (Eli Lilly and Company, priority 1995, dated 1998)
Values after ≈ are worked out from the molar mass of the structure shown.

Key:
[1] = tested on: Staphylococcus aureus S13E; assay type: cell-based
Protocol: (§1) The MIC's were determined using a standard broth micro-dilution assay.

[2] = tested on: Staphylococcus aureus SA1199B; assay type: cell-based
Protocol: as §1

[3] = tested on: Entercoccus faecium 180-1; experiment: broth micro-dilution MIC; assay type: cell-based
Protocol: as §1

Entercoccus faecium 276 = experiment: broth micro-dilution MIC; assay type: cell-based
Protocol: as §1

[4] = tested on: Staphylococcus aureus 446; experiment: broth micro-dilution MIC; assay type: cell-based
Protocol: as §1

[5] = tested on: Staphylococcus aureus 447; experiment: broth micro-dilution MIC; assay type: cell-based
Protocol: as §1

[6] = tested on: Staphylococcus aureus 489; experiment: broth micro-dilution MIC; assay type: cell-based
Protocol: as §1

[7] = tested on: Staphylococcus aureus 491; experiment: broth micro-dilution MIC; assay type: cell-based
Protocol: as §1

[8] = tested on: Staphylococcus aureus SA1199A; experiment: broth micro-dilution MIC; assay type: cell-based
Protocol: as §1

[9] = tested on: Staphylococcus aureus SA1199; experiment: broth micro-dilution MIC; assay type: cell-based
Protocol: as §1

[10] = tested on: Staphylococcus aureus X400; experiment: broth micro-dilution MIC; assay type: cell-based
Protocol: as §1

[11] = tested on: Staphylococcus aureus X778; experiment: broth micro-dilution MIC; assay type: cell-based
Protocol: as §1

[12] = tested on: Streptococcus pyogenes C203; experiment: broth micro-dilution MIC; assay type: cell-based
Protocol: as §1

Entercoccus faecium 180 = experiment: broth micro-dilution MIC; assay type: cell-based; details: Entercoccus faecium 180
Protocol: (§2) The formula I compounds have in vitro and in vivo activity against Gram-positive pathogenic bacteria. The MIC's were determined using a standard broth micro-dilution assay.

Entercoccus faecium 2041 = experiment: broth micro-dilution MIC; assay type: cell-based; details: Entercoccus faecium 2041
Protocol: as §2

[13] = tested on: Enterococcus gallinarum 245; experiment: broth micro-dilution MIC; assay type: cell-based; details: Enterococcus gallinarum 245
Protocol: as §2

[14] = tested on: Haemophilus influenzae RD; experiment: broth micro-dilution MIC; assay type: cell-based; details: Haemophilus influenzae RD
Protocol: as §2

[15] = tested on: Staphylococcus epidermidis 270; experiment: broth micro-dilution MIC; assay type: cell-based
Protocol: as §2

[16] = tested on: Staphylococcus haemolyticus 105; experiment: broth micro-dilution MIC; assay type: cell-based
Protocol: as §2

[17] = tested on: Staphylococcus haemolyticus 415; experiment: broth micro-dilution MIC; assay type: cell-based
Protocol: as §2

[18] = tested on: Streptococcus pneumoniae P1; experiment: broth micro-dilution MIC; assay type: cell-based
Protocol: as §2

[19] = tested on: vancomycin-resistant enterococci; experiment: broth micro-dilution, mean geometric MIC; assay type: cell-based, Enterococcus faecium and Enterococcus faecalis; details: enterococci, 24-hour incubation
[20] = tested on: vancomycin-susceptible enterococci; experiment: broth micro-dilution, mean geometric MIC; assay type: cell-based, Enterococcus faecium and Enterococcus faecalis; details: enterococci, 24-hour incubation

Row | SMILES | MIC [1] [µg/mL] | MIC [2] [µg/mL] | MIC [3] [µg/mL] | MIC (Entercoccus faecium 276) [µg/mL] | MIC [4] [µg/mL] | MIC [5] [µg/mL] | MIC [6] [µg/mL] | MIC [7] [µg/mL] | MIC [9] [µg/mL] | MIC [10] [µg/mL] | MIC [11] [µg/mL] | MIC (Entercoccus faecium 180) [µg/mL] | MIC (Entercoccus faecium 2041) [µg/mL] | MIC [13] [µg/mL] | MIC [14] [µg/mL] | MIC [15] [µg/mL] | MIC [16] [µg/mL] | MIC [17] [µg/mL] | mean geometric MIC, Vancomycin Resistant Strains [19] [µg/mL] | mean geometric MIC, Vancomycin Sensitive Strains [20] [µg/mL] | also measured
1 | CNC(CC(C)C)C(=O)NC1C(=O)NC(CC(N)=O)C(=O)NC2C(=O)NC3C(=O)NC(C(=O)NC(C(=O)O)c4cc(O)cc(O)c4-c4cc3ccc4O)C(OC3CC(C)(N)C(O)C(C)O3)c3ccc(c(Cl)c3)Oc3cc2cc(c3OC2OC(CO)C(O)C(O)C2OC2CC(C)(NCCCCCCCCCCc3ccccc3)C(O)C(C)O2)Oc2ccc(cc2Cl)C1O (stereo not drawn) [Compound 197] | 2 (≈ 1.11 µM) | 2 (≈ 1.11 µM) | 0.25 (≈ 0.138 µM) | 1 (≈ 0.553 µM) | 1 (≈ 0.553 µM) | 2 (≈ 1.11 µM) | 2 (≈ 1.11 µM) | 1 (≈ 0.553 µM) | 2 (≈ 1.11 µM) | 2 (≈ 1.11 µM) | 2 (≈ 1.11 µM) | 0.5 (≈ 0.276 µM) | 0.25 (≈ 0.138 µM) | 4 (≈ 2.21 µM) | 32 (≈ 17.7 µM) | 0.5 (≈ 0.276 µM) | 1 (≈ 0.553 µM) | 4 (≈ 2.21 µM) | 1.2 | 0.16 | MIC [8]: 1 µg/mL (≈ 0.553 µM); MIC [12]: ≤ 0.06 µg/mL; MIC [18]: ≤ 0.06 µg/mL
2 | CNC(CC(C)C)C(=O)NC1C(=O)NC(CC(N)=O)C(=O)NC2C(=O)NC3C(=O)NC(C(=O)NC(C(=O)O)c4cc(O)cc(O)c4-c4cc3ccc4O)C(OC3CC(C)(N)C(O)C(C)O3)c3ccc(c(Cl)c3)Oc3cc2cc(c3OC2OC(CO)C(O)C(O)C2OC2CC(C)(NCc3c4ccccc4c(C)c4ccccc34)C(O)C(C)O2)Oc2ccc(cc2Cl)C1O (stereo not drawn) [Compound 17] | 1 (≈ 0.557 µM) | 1 (≈ 0.557 µM) | ≤ 0.06 | 0.5 (≈ 0.278 µM) | 2 (≈ 1.11 µM) | 8 (≈ 4.45 µM) | 1 (≈ 0.557 µM) | 2 (≈ 1.11 µM) | 4 (≈ 2.23 µM) | 0.5 (≈ 0.278 µM) | 0.5 (≈ 0.278 µM) | 2 (≈ 1.11 µM) | 0.25 (≈ 0.139 µM) | 0.5 (≈ 0.278 µM) | 32 (≈ 17.8 µM) | 4 (≈ 2.23 µM) | 8 (≈ 4.45 µM) | 8 (≈ 4.45 µM) | 9.5 | 0.38 | MIC [8]: ≤ 0.06 µg/mL; MIC [12]: ≤ 0.06 µg/mL; MIC [18]: ≤ 0.06 µg/mL
3 | CNC(CC(C)C)C(=O)NC1C(=O)NC(CC(N)=O)C(=O)NC2C(=O)NC3C(=O)NC(C(=O)NC(C(=O)O)c4cc(O)cc(O)c4-c4cc3ccc4O)C(OC3CC(C)(N)C(O)C(C)O3)c3ccc(c(Cl)c3)Oc3cc2cc(c3OC2OC(CO)C(O)C(O)C2OC2CC(C)(NCCCCCCCCc3ccccc3)C(O)C(C)O2)Oc2ccc(cc2Cl)C1O (stereo not drawn) [Compound 176] | 2 (≈ 1.12 µM) | 1 (≈ 0.562 µM) | ≤ 0.06 | 2 (≈ 1.12 µM) | 2 (≈ 1.12 µM) | 1 (≈ 0.562 µM) | 0.5 (≈ 0.281 µM) | 2 (≈ 1.12 µM) | 2 (≈ 1.12 µM) | 1 (≈ 0.562 µM) | 1 (≈ 0.562 µM) | 2 (≈ 1.12 µM) | 0.125 (≈ 0.0702 µM) | 2 (≈ 1.12 µM) | 8 (≈ 4.49 µM) | 0.5 (≈ 0.281 µM) | 4 (≈ 2.25 µM) | 2 (≈ 1.12 µM) | 1.2 | 0.13 | 
